In patent US4624950A, “Method for treating atherosclerosis hyperlipidema, lipid deposition on arterial walls, or raising the ratio of high density lipoprotein cholesterol to total cholesterol in serum” (Nissan Chemical Industries Ltd., priority 1983, dated 1986):

Key:
[1] = tested on: experimental atherosclerosis in rabbits induced by cholesterol diet; experiment: Effect on experimental atherosclerosis in rabbits induced by cholesterol diet (Test 4); format: in vivo, rabbit (male)
Protocol: The effect of the compound of the formula I on experimental atherosclerosis in rabbits induced by cholesterol diet
Twenty-five male rabbits weighing 1.8-2.0 kg were used. They were fed with basic chow (Nippon clea, CR-3) for a stabilizing period of 5 days. After this period, they were fed with the chow containing 1% cholesterol, 100 g per head a day for a week (7 days) and plasma cholesterol was measured using a blood sample collected from acuricle vein.
According to the results of cholesterol values measured, 14 animals of high cholesterol plasma level were selected. They were divided into two groups to have nearly equal means and S.D. values of plasma cholesterol. One group of 7 rabbits was fed with the chow containing 1% cholesterol and another group of 7 rabbits was fed with the chow containing 1% cholesterol and 0.1% compound of the formula I in an amount of 100 g per head a day for 8 weeks.
Rabbits were sacrificed at the end of 8 weeks. Aortic arch and thoracic aorta were excised, and macroscopical changes were examined using the Sudan III stain method. According to the results of gross observation of the internal surface stained by Sudan III, the ratios of the atherosclerotic plaque area (the area stained by Sudan III) to the whole internal surface area were calculated. The ratio of inhibition of atherosclerosis of the compound of the formula I was obtained by comparing the average value with the value of the control.

[2] = tested on: Escherichia coli (WP2UVrA); details: up to 5000 μg/Plate, absence or presence of S-9 mix of rat liver
Protocol: The mutagenicity was tested by using Escherichia coli (WP2UVrA) and Salmonella (TA98, TA100, TA1535 and TA1538) in the absence or presence of a drug metabolizing enzymes S-9 mix of rat liver.

[3] = tested on: cholesterol-fed hyperlipidemic rats; experiment: Antihyperlipidemic activity in cholesterol-fed hyperlipidemic rats (Test 3); format: in vivo, rat (male S.D.)
Protocol: It is administered from once to three times per day. The dose may of course be varied depending upon the age, the weight or the condition of illness of the patient. […] In the following tests, the fractionation of lipoproteins was conducted by a dextran sulfate-MgCl2 precipitation method.
Cholesterol in serum was measured by means of a cholesterol measuring kit (Cholesterol C-Test Wako, manufactured by Wako Junyaku Co., Ltd.), and cholesterol in HDL was measured by means of NC Hi-Set, manufactured by Nippon Chemiphar Co., Ltd. The quantitative analysis of triglyceride was conducted by means of a triglyceride measuring kit (Triglyceride C-II-Test Wako, manufactured by Wako Junyaku Co., Ltd.).
Further, the change rate in the following Tables, was calculated by the following equation.
Change rate(%)=(A-B/A)×100 where A is the amount of serum lipids (mg/dl) of the control group, and B is the amount of serum lipids (mg/dl) of the group to which the therapeutic agent was administered.
The antihyperlipidemic activity in cholesterol-fed hyperlipidemic rats
Male S.D. rats weighing 80-90 g (30 days old) were divided into groups of 5 rats each. The test compounds suspended in 0.5% CMC-Na were given to the rats in a daily dose of 0.4 ml per 100 g rat via stomach tube every 10:00 a.m. for 7 or 14 days. Control groups were given an equal volume of the vehicle. […] The total cholesterol, triglyceride and HDL cholesterol in serum were measured. After sacrificed, the livers were excised, washed with physiological saline, blotted on filter paper and weighed. The degree of hepatomegaly was calculated by the following equation.
Degree of hepatomegaly (%)=(D-C/C)×100 where C is the liver weight (g) per 100 g body weight in the control animal, and D is the liver weight (g) per 100 g body weight in the drug treated animal.

[4] = 0.1% in 1% cholesterol chow, 8 weeks, vs control
[5] = 0.1% in 1% cholesterol chow, 100 g per head a day, 8 weeks

## CN1C(=S)SC(c2ccccc2)N(C)C1c1ccccc1 (stereo not drawn) [Compound of the formula I, 3,5-dimethyl-4,6-diphenyl-tetrahydro-2H-1,3,5-thiadiazine-2-thione]
[1]; [4]
  Ratio of inhibition of atherosclerosis (Ratio of Improvement), Aortic arch: 13.8%
  Ratio of inhibition of atherosclerosis (Ratio of Improvement), Thoracic aorta: 67.7%
  Ratio of inhibition of atherosclerosis (Ratio of Improvement), Total aorta: 45.3%
[1]; [5]
  Atherosclerotic plaque area stained by Sudan III, Aortic arch: 77.7%
  Atherosclerotic plaque area stained by Sudan III, Thoracic aorta: 11.0%
  Atherosclerotic plaque area stained by Sudan III, Total aorta: 26.3%
[1]; 1% cholesterol diet
  Inhibition of experimental atherosclerosis (in words): inhibits experimental atherosclerosis
[2]
  Mutagenicity: did not show any mutagenicity
[3]; 7 or 14 days
  Hepatomegaly (in words): no hepatomegaly
[3]; 7th day
  Lipid reducing and HDL-cholesterol increasing activity (in words): not distinct very much
[3]; 7th day, 10 mg/kg/day p.o.
  Change rate, HDL-Chol: -12.7%
  Change rate, TG: -13.8%
  Change rate, Total-Chol: -3.3%
  Degree of hepatomegaly: +4.0%
  Serum lipid, HDL-Chol: 15.8 mg/dL
  Serum lipid, TG: 105.9 mg/dL
  Serum lipid, Total-Chol: 421.7 mg/dL
[3]; 7th day, 50 mg/kg/day p.o.
  Change rate, HDL-Chol: 0%
  Change rate, TG: -15.3%
  Change rate, Total-Chol: -33.6%
  Degree of hepatomegaly: +2.0%
  Serum lipid, HDL-Chol: 18.1 mg/dL
  Serum lipid, TG: 104.0 mg/dL
  Serum lipid, Total-Chol: 289.8 mg/dL
[3]; 7th day, 100 mg/kg/day p.o.
  Change rate, HDL-Chol: +6.1%
  Change rate, TG: -24.5%
  Change rate, Total-Chol: -32.4%
  Serum lipid, HDL-Chol: 19.2 mg/dL
  Serum lipid, TG: 92.7 mg/dL
  Serum lipid, Total-Chol: 294.7 mg/dL
[3]; 7th day, 150 mg/kg/day p.o.
  Change rate, HDL-Chol: -4.4%
  Change rate, TG: -46.1%
  Change rate, Total-Chol: -11.7%
  Degree of hepatomegaly: +12.0%
  Serum lipid, HDL-Chol: 17.3 mg/dL
  Serum lipid, TG: 66.2 mg/dL
  Serum lipid, Total-Chol: 385 mg/dL
[3]; 14th day
  Lipid reducing and HDL-cholesterol increasing activity (in words): strong lipid reducing activity and HDL-cholesterol increasing activity
[3]; 14th day, 10 mg/kg/day p.o.
  Change rate, HDL-Chol: +129.9%
  Change rate, TG: -44.6%
  Change rate, Total-Chol: -42.5%
  Degree of hepatomegaly: +5.3%
  Serum lipid, HDL-Chol: 20.0 mg/dL
  Serum lipid, TG: 92.5 mg/dL
  Serum lipid, Total-Chol: 336.5 mg/dL
[3]; 14th day, 50 mg/kg/day p.o.
  Change rate, HDL-Chol: +135.6%
  Change rate, TG: -47.5%
  Change rate, Total-Chol: -33.5%
  Degree of hepatomegaly: +1.8%
  Serum lipid, HDL-Chol: 20.5 mg/dL
  Serum lipid, TG: 87.7 mg/dL
  Serum lipid, Total-Chol: 389.2 mg/dL
[3]; 14th day, 100 mg/kg/day p.o.
  Change rate, HDL-Chol: +186.2%
  Change rate, TG: -44.8%
  Change rate, Total-Chol: -53.7%
  Degree of hepatomegaly: +10.5%
  Serum lipid, HDL-Chol: 24.9 mg/dL
  Serum lipid, TG: 92.2 mg/dL
  Serum lipid, Total-Chol: 271.3 mg/dL
[3]; 14th day, 150 mg/kg/day p.o.
  Change rate, HDL-Chol: +147.1%
  Change rate, TG: -53.8%
  Change rate, Total-Chol: -60.9%
  Degree of hepatomegaly: +5.3%
  Serum lipid, HDL-Chol: 21.5 mg/dL
  Serum lipid, TG: 77.1 mg/dL
  Serum lipid, Total-Chol: 228.6 mg/dL
